According to the NIST ThermoML archive (doi:10.1016/j.fluid.2013.02.005):

What was measured:
[1] = Boiling temperature at pressure P; settings: 101.33 kPa; Liquid; Ebulliometric method (Recirculating still)
[2] = for surface tension liquid-gas: Maximal bubble pressure; for mass density: 298.15 K, 101.33 kPa, Vibrating tube method; for mass density / vapor or sublimation pressure: Liquid; for vapor or sublimation pressure: Ebulliometric method (Recirculating still)
[3] = refractive index (Na D-line) (dimensionless); settings: 298.15 K; 101.33 kPa; Liquid; Standard Abbe refractometry
[4] = xn = mol fraction of the nth substance listed; settings: Maximal bubble pressure

Cc1ccc(C)o1 [2,5-dimethylfuran]
Settings	Boiling temperature at pressure P [°C]	mass density [kg/m3]	refractive index
[1]	93.68	–	–
[2]	–	895.63	–
[3]	–	–	1.44012

[2]
Settings	surface tension liquid-gas [mN/m]	vapor or sublimation pressure [kPa]
283.15 K	26.34	–
303.15 K	24.05	–
330.15 K	20.58	–
345.24 K	–	50
357.21 K	–	75
364.37 K	–	94

CC(C)OC(C)C [diisopropyl ether] + Cc1ccc(C)o1
[4], x1 = 1
Settings	surface tension liquid-gas [mN/m]
283.15 K	18.88
330.15 K	13.88

Cc1ccc(C)o1 [2,5-dimethylfuran] + CC(C)OC(C)C
surface tension liquid-gas [mN/m], [4]
Settings	283.15 K	330.15 K
x2 = 0	26.34	20.58
x2 = 0.067	24.79	–
x2 = 0.112	24.27	–
x2 = 0.153	–	19.28
x2 = 0.192	–	18.93
x2 = 0.234	23.31	–
x2 = 0.245	–	18.31
x2 = 0.323	22.56	–
x2 = 0.342	–	17.66
x2 = 0.42	21.87	–
x2 = 0.434	–	17.01
x2 = 0.52	21.31	–
x2 = 0.543	–	16.48
x2 = 0.626	20.86	–
x2 = 0.664	–	15.79
x2 = 0.782	–	15.16
x2 = 0.897	–	14.65

CC(C)OC(C)C [diisopropyl ether]
Settings	Boiling temperature at pressure P [°C]	mass density [kg/m3]	refractive index
[1]	68.52	–	–
[2]	–	718.75	–
[3]	–	–	1.36652

[2]
Settings	surface tension liquid-gas [mN/m]	vapor or sublimation pressure [kPa]
283.15 K	18.88	–
303.15 K	16.7	–
307.64 K	–	30.01
311.53 K	–	35.01
314.98 K	–	40.01
318.08 K	–	45.01
320.94 K	–	50.01
321.03 K	–	50
323.56 K	–	55.01
326 K	–	60.01
328.29 K	–	65.01
330.15 K	13.88	–
330.45 K	–	70.01
332.48 K	–	75.01
332.65 K	–	75
334.41 K	–	80.01
336.23 K	–	85.01
339.57 K	–	94
339.65 K	–	95.01
341.52 K	–	100.89
